The record followed here is patent publication US6551774B1, “Diagnostic methods for conditions associated with elevated cellular levels of telomerase activity” (Board of Regents, The University of Texas System, priority 1992, dated 2003).

One series concerns SW26 cells. Nature of the series: Frequency of escape from crisis (immortalization) of SW26 cells, fluctuation analysis. It is filed as cell-based, human. To be noted: bleomycin sulfate 25 μg/ml for two hours; LNL6 infection with 2 μg/ml polybrene. From the text: The frequency of escape from crisis (e.g., the immortalization frequency of T-antigen expressing cells) was estimated using an approach based on what is essentially a fluctuation analysis as previously described (Shay, J. W., and Wright, W. E. (1989) Exp. Cell Res. 184, 109-118). SW26 cells (a clone isolated from IMR 90 normal human lung fibroblasts transfected with a vector expressing SV40 large T antigen) were expanded approximately 15 PDL's before crisis into multiple series at a constant cell density of 6667 cells/cm^2. Each series was subsequently maintained as a separate culture, so that at the end of the experiment the fraction of each series that gave rise to immortal cell lines could be determined. Cultures were split at or just prior to confluence at 6667 cells/cm^2. […]
The remainder of the dishes were used as controls (70 dishes) or infected with LNL6 defective retrovirus (100 dishes). […] Within a few days after infection, all control and experimental dishes were counted and each dish contained 1-2×10^6 cells. The PDL of each dish was calculated and cells were then replated at 0.33×10^6 in 50 cm^2 dishes and maintained separately to conduct the fluctuation analysis.
Immortalization is expressed as the number of immortal lines per number of culture series, each series being derived from a single dish at the initiation of the experiment. […]

The next series concerns IMR-90 SW26 cells. Nature of the series: Cell death of IMR-90 SW26 cells on bleomycin sulfate treatment. Type of series: cell-based, human. To be noted: 25 μg/ml for two hours in serum free medium. As for the experimental part:
SW 26 cells enter crisis at approximately PDL 82-85. Numerous vials of SW26 cells (8×10^6 cells/vial) were frozen at PDL 71, and testing verified that spontaneous immortalization events had not yet occurred. Five vials were thawed, scaled up for 4 days to approximately 10^8 cells (thus to approximately PDL 74), then trypsinized and combined into a single pool of cells in 40 ml of medium and distributed into 200 10 cm^2 dishes. Thirty dishes were treated with 25 μg/ml bleomycin sulfate (a chemical mutagen) for two hours in serum free medium one day later.

Turning to bleomycin sulfate, in the series on SW26 cells, the “Frequency (probability of obtaining an immortal cell line based on the number of cells plated at each passage)” value is 7.7 × 10^−7 and the “Immortalization (number of immortal lines per number of culture series)” value is 7/27. Moreover, the cells dying result in the series with IMR-90 SW26 cells is “approximately 50%”.
